Experimental findings from article PMC10511408, “Novel iodoquinazolinones bearing sulfonamide moiety as potential antioxidants and neuroprotectors” (Scientific Reports, 2023) are described below.

Structures are written as SMILES. Like-named read-outs stand apart in the source and are kept apart here.

Data set [1] concerns the target acetylcholine esterase (AChE) (Homo sapiens, UniProt P22303). Briefly: biochemical. How it is done:
The cholinesterase enzymes' inhibitory activity was evaluated using modified Osman et al.[45] method. Briefly, samples were initially dissolved in DMSO to achieve a concentration of 10 mg/mL. Then 0.1 mL of the sample was diluted to 1 mL methanol to reach the concentration of 1 mg/mL (concentration 1). From concentration (1), 0.1 mL was further diluted to 1 mL to reach the concentration of 0.1 mg/mL (concentration 2). Concentration 1 (1 mg/mL) will become 0.1 mg/mL inside the plate and concentration 2 will become 0.01 mg/mL due to the addition of the reagents of the assay that dilute the sample ten folds. […] Then 20 μL of the sample/standard solution was added followed by 140 μL of buffer (1). The mixture was allowed to stand for 15 min at room temperature.

The nature of data set [2]: Free radical scavenging activity (DPPH) assay. As to conditions: mean ± S.E (n = 3). The protocol:
The antioxidant activities of all newly synthesized compounds were measured as radical scavenging activities using 1,1-diphenyl-2-picrylhydrazyl (DPPH) (Sigma Chemical Co., Steinheim, Germany) and compared with ascorbic acid as a reference standard (Sigma-Aldrich Chemie GmbH, Taufkirchen, Germany)[46].
Where, 1 mL of the test compounds or ascorbic acid at concentrations (12.5, 25, 50 and 100 mg/mL) were mixed with 1 ml of the DPPH solution. The mixtures were incubated for 30 min at room temperature in dark. The absorbance was read using a JENWAY 6315 spectrophotometer (Keison Products, Chelmsford, England) at 517 nm against blank.
It was carried out in triplicate, and average values were used to determine the inhibitory percentage of DPPH according to the following equation: percent inhibition = [(B − A)/B]*100, where A is the absorbance of the compound or standard and B is the absorbance of blank. IC50 (µM) of each compound was calculated according to the nonlinear regression dose response-inhibition curve using Prism 5.03 (GraphPad, San Diego, CA, USA) and expressed as mean ± standard error (S.E).

The nature of data set [3]: Acute toxicity study (LD50). The conditions noted are these: mouse, in vivo, ip; albino male mice, i.p.; read-out: LD50 (median lethal dose). The protocol:
Lethal dose fifty (LD50) was determined for the most promising compound 14 to estimate its acute toxicity in albino male mice. […] Consequently, one-tenth of this dose was selected as the therapeutic dose for further evaluation of the potential radioprotective effects of 14. This was following our previous studies[42],[63],[68].

The test system of data set [4] is irradiated mice. Briefly: Open field test in irradiated mice. In kind it is in vivo. The conditions noted are these: 14 at 30 mg/kg/day i.p. for 7 days before 5 Gy irradiation. The protocol:
(§1) Twenty-one mice were blindly allocated into three groups (n = 7). The first group (control) was injected i.p. with 10% DMSO, daily, for 7 days. The second one (irradiated) was treated as a control, and after 1 h from the last DMSO injection, the mice were exposed to 5 Gy gamma radiation. A third group (Compound 14 + irradiation) received 30 mg/kg/day i.p. (1/10 LD50) of compound 14, daily for 7 days. Then on the last day, after 1 h of injection, animals were irradiated at a dose of 5 Gy. After 24 h. of the last injection, behavioral tests were carried out. Immediately after behavioral test, mice were anesthetized using urethane ([…] i.p.)[49] and sacrificed by cervical dislocation then brain tissues were dissected out, rinsed with ice-cold saline, and dried on a filter paper. Then it was homogenized in ice-cold 0.1 M phosphate buffer saline (pH = 7.4) and stored at – 80 °C for subsequent biochemical analysis.
(§2) All behavioral tests have been carried out under blind conditions to avoid any bias in evaluating the animal's behavior. Mice were allowed to a pre-test session a day before scarification for habituation.
This evaluates locomotors and exploratory activities in mice where, the apparatus is transparent walls and a white floor 30 × 30 × 15 cm, divided into 16 squares of equal area. Each mouse was placed in the center of the open field test apparatus and allowed to roam freely for 5 min and latency time (ie, time taken to start moving) was detected as well as locomotion frequency as ambulation (ie, number of squares crossed), rearing frequency (ie, number of times the mice stand on its hind legs or with its forearm against the wall or in the free air)[50].

The subject of data set [5] is irradiated mice. In words: Forced swimming test in irradiated mice. It is filed as in vivo. As to conditions: 14 at 30 mg/kg/day i.p. for 7 days before 5 Gy irradiation; compared to radiation only. How it is done:
as §1, §2
Mice were independently forced to swim in an open cylindrical container (22 cm diameter, 40 cm height) that contained water (23–25 °C).

In data set [6] the test system is Myeloperoxidase (MPO). In words: MPO in brain tissue homogenate of irradiated mice (ELISA). It is filed as in vivo. The conditions noted are these: 14 at 30 mg/kg/day i.p. for 7 days, 5 Gy; compared to irradiated mice. How it is done:
as §1
(§3) The antioxidant activity of compound 14 was measured by estimation of MPO activity using an ELISA Kit from MyBioSource Cat.No.: CSB-E08723m (Houston, TX., USA) as well as the level of GSH was evaluated using a colorimetric kit according to the method of E. Beutler[52].
A general note: ELISA stands for enzyme-linked immunosorbent assay.

Data set [7] relates to Glutathione (GSH). Briefly: GSH level in brain tissue homogenate of irradiated mice. It is filed as in vivo. The conditions noted are these: 14 at 30 mg/kg/day i.p. for 7 days, 5 Gy; compared to irradiated mice. How it is done: as §1, §3
Data set [8] concerns Acetylcholinesterase (AChE). Briefly: AChE in brain tissue homogenate of irradiated mice (ELISA). As to conditions: 14 at 30 mg/kg/day i.p. for 7 days, 5 Gy; compared to radiation only. It is filed as in vivo. How it is done: (§4) Twenty-one mice were blindly allocated into three groups (n = 7). The first group (control) was injected i.p. with 10% DMSO, daily, for 7 days. […]. A third group (Compound 14 + irradiation) received 30 mg/kg/day i.p. (1/10 LD50) of compound 14, daily for 7 days. Then on the last day, after 1 h of injection, animals were irradiated at a dose of 5 Gy. After 24 h. of the last injection, behavioral tests were carried out. […]. Then it was homogenized in ice-cold 0.1 M phosphate buffer saline (pH = 7.4) and stored at – 80 °C for subsequent biochemical analysis.
(§5) Brain homogenates were used for measuring AChE using Mouse Acetylcholinesterase (AChE) ELISA Kit content using the Mouse Acetylcholinesterase ELISA Kit from MyBioSource Cat.No. MBS260553 (San Diego, CA., USA) according to the manufacturer’s instructions. The generation of norepinephrine (NE) in brain tissues was measured using an Eliza kit (MBS2600834) from MyBioSource (San Diego, CA, USA) according to the manufacturer’s instructions.

In data set [9] the test system is Norepinephrine (NE). In words: Norepinephrine in brain tissue homogenate of irradiated mice (ELISA). It is filed as in vivo. As to conditions: 14 at 30 mg/kg/day i.p. for 7 days, 5 Gy; Fig. 6B. How it is done:
as §4, §5

Setting [10] is: in vitro, mean ± S.E (n = 3), read-out: AChE IC50.

Sequence of acetylcholine esterase (AChE) (P22303 32-614): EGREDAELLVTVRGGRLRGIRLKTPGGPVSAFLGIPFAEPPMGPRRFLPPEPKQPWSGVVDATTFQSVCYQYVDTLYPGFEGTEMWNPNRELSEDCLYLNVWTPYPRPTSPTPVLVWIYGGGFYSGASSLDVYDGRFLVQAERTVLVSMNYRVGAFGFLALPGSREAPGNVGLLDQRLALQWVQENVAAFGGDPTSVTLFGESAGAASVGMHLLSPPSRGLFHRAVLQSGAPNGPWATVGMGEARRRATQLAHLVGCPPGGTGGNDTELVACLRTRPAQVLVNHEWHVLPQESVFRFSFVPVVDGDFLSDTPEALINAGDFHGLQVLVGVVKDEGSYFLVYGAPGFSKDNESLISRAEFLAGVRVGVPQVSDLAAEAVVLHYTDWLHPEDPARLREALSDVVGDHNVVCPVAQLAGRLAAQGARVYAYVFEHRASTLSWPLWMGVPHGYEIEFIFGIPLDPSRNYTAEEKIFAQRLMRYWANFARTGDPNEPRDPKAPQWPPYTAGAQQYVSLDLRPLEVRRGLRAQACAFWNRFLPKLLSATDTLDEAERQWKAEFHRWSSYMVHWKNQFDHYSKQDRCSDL

In the case of `CCOc1ccc2nc(NC(=O)CSc3nc4ccc(I)cc4c(=O)n3-c3ccc(S(N)(=O)=O)cc3)sc2c1` [Compound 7, N-(6-Ethoxybenzo[d]thiazol-2-yl)-2-(6-iodo-4-oxo-3-(4-sulfamoylphenyl)-3,4-dihydroquinazolin-2-ylthio) acetamide], the half-maximal inhibitory concentration (IC50) (as a rule, the concentration that inhibits the measured activity by half) in data set [1] (setting [10]) is 90 ± 5.83 nM; in data set [2], 118.8 ± 0.92 µM.

Take `Cn1c(NC(=O)CSc2nc3ccc(I)cc3c(=O)n2-c2ccc(S(N)(=O)=O)cc2)cc(=O)n(C)c1=O` [Compound 16, N-(1,3-Dimethyl-2,6-dioxo-1,2,3,6-tetrahydropyrimidin-4-yl)-2-(6-iodo-4-oxo-3-(4-sulfamoylphenyl)-3,4-dihydroquinazolin-2-ylthio) acetamide]: the IC50 in [1] (setting [10]) was 86.2 ± 2.14 nM; in data set [2], 137.3 ± 0.29 µM.

For the compound `NS(=O)(=O)c1ccc(-n2c(SCC(=O)Nc3nccs3)nc3ccc(I)cc3c2=O)cc1` [Compound 6, 2-(6-Iodo-4-oxo-3-(4-sulfamoylphenyl)-3,4-dihydroquinazolin-2-ylthio)-N-(thiazol-2-yl) acetamide], the concentration for half-maximal inhibition (IC50) in data set [1] (setting [10]) is above 100 nM; in [2], 143.4 ± 1.12 µM.

As to `NS(=O)(=O)c1ccc(-n2c(SCC(=O)NN3CCOCC3)nc3ccc(I)cc3c2=O)cc1` [Compound 9, 2-(6-Iodo-4-oxo-3-(4-sulfamoylphenyl)-3,4-dihydroquinazolin-2-ylthio)-N-morpholinoacetamide], the IC50 in data set [1] (setting [10]) is above 100 nM; in [2], 148 ± 1.53 µM.

`NS(=O)(=O)c1ccc(-n2c(SCC(=O)Nc3nc4ccc([N+](=O)[O-])cc4s3)nc3ccc(I)cc3c2=O)cc1` [Compound 8, 2-(6-Iodo-4-oxo-3-(4-sulfamoylphenyl)-3,4-dihydroquinazolin-2-ylthio)-N-(6-nitrobenzo[d]thiazol-2-yl) acetamide]: the concentration for half-maximal inhibition (IC50) in data set [1] (setting [10]) was above 100 nM; in [2] it was 177 ± 1.99 µM.

With `CN1C(=O)c2ccc(NC(=O)CSc3nc4ccc(I)cc4c(=O)n3-c3ccc(S(N)(=O)=O)cc3)cc2C1=O` [Compound 17, 2-(6-Iodo 4-oxo-3-(4-sulfamoylphenyl)-3,4-dihydroquinazolin-2-ylthio)-N-(2-methyl-1,3-dioxoisoindolin-5-yl) acetamide], the values for the half-maximal inhibitory concentration (IC50) in data set [1] (setting [10]) and in [2] were 77.4 ± 1.29 nM and 127 ± 1.93 µM, respectively.

In the case of `NS(=O)(=O)c1ccc(-n2c(SCC(=O)Nc3c[nH]c(=O)[nH]c3=O)nc3ccc(I)cc3c2=O)cc1` [Compound 15, N-(2,4-Dioxo-1,2,3,4-tetrahydropyrimidin-5-yl)-2-(6-iodo-4-oxo-3-(4-sulfamoylphenyl)-3,4-dihydroquinazolin-2-ylthio) acetamide], the IC50 was above 100 nM in data set [1] (setting [10]) and 136.3 ± 1.3 µM in data set [2].

As to `Cc1cc(NC(=O)CSc2nc3ccc(I)cc3c(=O)n2-c2ccc(S(N)(=O)=O)cc2)no1` [Compound 5, 2-(6-Iodo-4-oxo-3-(4-sulfamoylphenyl)-3,4-dihydroquinazolin-2-ylthio)-N-(5-methylisoxazol-3-yl) acetamide], the values for the IC50 in [1] (setting [10]) and in data set [2] were above 100 nM and 149.8 ± 1.26 µM, respectively.

As to `NS(=O)(=O)c1ccc(-n2c(SCC(=O)Nc3cnccn3)nc3ccc(I)cc3c2=O)cc1` [Compound 14, 2-(6-Iodo-4-oxo-3-(4-sulfamoylphenyl)-3,4-dihydroquinazolin-2-ylthio)-N-(pyrazin-2-yl) acetamide], in [1] (setting [10]), the half-maximal inhibitory concentration (IC50) was determined as 11.6 ± 0.45 nM. In [2], this compound registered an IC50 of 95.5 ± 1.67 µM. In addition, the LD50 (commonly the dose expected to kill half of the subjects tested) in data set [3] was 300 mg/kg. Also, in data set [4], the “ambulation (open field test), effect of radiation abolished by” value was found to be 31% and the “open field parameters (latency, ambulation, rearing)” value was “normalized all open field parameters”. Besides, the “decrease in latency time (open field test)” value in [4] (compared with mice that received radiation alone) came out at 72.4%. Moreover, the “decrease in mean immobility time (forced swimming test)” value in data set [5] was determined as 33%. The “decrease in brain MPO” value in data set [6] came to 39.6%. Moreover, the “increase in brain GSH levels” value in data set [7] is given as 17%. Further, in data set [8], the “decrease in brain AChE” value is 21%. Further, the “Norepinephrine (NE), effect of radiation abolished by” value in data set [9] is given as 25%.

Consider `CCOC(=O)N1CCC(NC(=O)CSc2nc3ccc(I)cc3c(=O)n2-c2ccc(S(N)(=O)=O)cc2)CC1` [Compound 10, Ethyl 4-(2-(6-iodo-4-oxo-3-(4-sulfamoylphenyl)-3,4-dihydroquinazolin-2-ylthio)acetamido) piperidine-1-carboxylate], for which the IC50 in data set [1] is above 100 nM; in [2], 154.9 ± 1.24 µM.

Compound `O=C1O[C@H]([C@@H](O)CO)C(O)=C1O` [Ascorbic acid, ascorbic acid, reference compound] came in with an IC50 in data set [2] of 112.8 ± 1.03 µM.

Consider `CCOC(=O)c1cccc(NC(=O)CSc2nc3ccc(I)cc3c(=O)n2-c2ccc(S(N)(=O)=O)cc2)c1` [Compound 13, Ethyl 3-(2-(6-iodo-4-oxo-3-(4-sulfamoylphenyl)-3,4-dihydroquinazolin-2-ylthio)acetamido)benzoate], for which the half-maximal inhibitory concentration (IC50) stood at 74.8 ± 3.06 nM in [1] (setting [10]) and 129.1 ± 1.03 µM in data set [2].

Turning to `CCOC(=O)c1ccccc1NC(=O)CSc1nc2ccc(I)cc2c(=O)n1-c1ccc(S(N)(=O)=O)cc1` [Compound 12, Ethyl 2-(2-(6-iodo-4-oxo-3-(4-sulfamoylphenyl)-3,4-dihydroquinazolin-2-ylthio)acetamido)benzoate], the IC50 in data set [1] (setting [10]) was 60.7 ± 2.8 nM; in [2], 122.3 ± 0.92 µM.

As for `NS(=O)(=O)c1ccc(-n2c(SCC(=O)NC3CCN(Cc4ccccc4)CC3)nc3ccc(I)cc3c2=O)cc1` [Compound 11, N-(1-Benzylpiperidin-4-yl)-2-(6-iodo-4-oxo-3-(4-sulfamoylphenyl)-3,4-dihydroquinazolin-2-ylthio) acetamide], the 50% inhibitory concentration (IC50) was 23.9 ± 1.41 nM in data set [1] (setting [10]) and 109 ± 1.09 µM in [2].
